This note sets out measurements from patent US9132130B2, “Purine derivative and antitumor agent using same” (ZENYAKU KOGYO KABUSHIKI KAISHA, priority 2009, dated 2015).

What all share (assay type): cell-based
The test system of assay [1] is PC-3 cells (human prostate cancer cells). The assay is described as follows: in vitro antitumor activity test, PC-3 cells, XTT colorimetry. Particulars: PC-3 human prostate cancer cells, cultured 72 hours. The method in brief:
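PC-3 human prostate cancer cells, seeded at 2×10^4 cells/ml and allowed to adhere for 24 h, were exposed 72 h at 37° C, 5% CO2 to compound diluted in RPMI 1640 with 10% FBS to 2.0×10^−9 to 2.0×10^−4 M (pre-addition solutions). Growth was measured by XTT colorimetry and GI50 (μM) calculated.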

The subject of assay [2] is WiDr cells (human colon cancer cells). The assay is described as follows: in vitro antitumor activity test, WiDr cells, XTT colorimetry. As to conditions: cultured 72 hours. The method in brief:
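Human colon cancer cells in MEM/10% FBS were seeded 3×10^4 cells/ml and allowed to adhere for 24 h, then exposed to compounds prepared at 2.0×10^−9 to 2.0×10^−4 M in RPMI 1640 for 72 h at 37° C, 5% CO2. Growth was read by XTT colorimetry and GI50 (μM) calculated.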

Assay [3] relates to A549 cells (human lung cancer cells). The assay is described as follows: in vitro antitumor activity test, A549 cells, XTT colorimetry. Particulars: cultured 72 hours. The method in brief:
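Cells seeded at 2×10^4 cells/ml in MEM + 10% FBS, 25 mM HEPES, kanamycin, allowed to adhere 24 h, then exposed to compounds (DMSO stocks diluted in RPMI 1640; prepared at 2.0×10^−9 to 2.0×10^−4 M) for 72 h at 37 °C, 5% CO2. Growth inhibition read by XTT colorimetry; GI50 (μM) calculated.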

The test system of assay [4] is B16F10 cells (mouse melanoma [malignant melanoma] cells). The assay is described as follows: in vitro antitumor activity test, B16F10 cells, XTT colorimetry. Particulars: B16-F10, cultured 72 hours. A digest of the protocol:
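B16F10 mouse melanoma cells were seeded from a 1×10^4 cells/ml suspension and allowed to adhere for 24 h. Compounds in DMSO were diluted in RPMI 1640 with 10% FBS to 2.0×10^−9 to 2.0×10^−4 M and incubated 72 h at 37° C, 5% CO2. XTT colorimetry gave GI50 (μM).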

For assay [5], the system named is P388 cells (mouse leukemia cells). Kind of assay: in vitro antitumor activity test, P388 cells, XTT colorimetry. As to conditions: cultured 72 hours. A digest of the protocol: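 Cells from DBA/2 mouse ascites, in RPMI 1640 with 10% FBS and 25 mM HEPES, seeded from a 4×10^4 cells/ml suspension. Equal volume added of compound solutions prepared at 2.0×10^−9 to 2.0×10^−4 M (pre-mixing). After 72 h at 37° C, 5% CO2, growth read by XTT; GI50 (μM) is the concentration giving 50% growth inhibition.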

Regarding `COc1ccc(CSc2nc(N3CCOCC3)c3ncn(C)c3n2)cc1C#N` [Compound 80, 2-(3-cyano-4-methoxybenzylsulfanyl)-9-methyl-6-morpholino-9H-purine], the GI50 turned out to be 70 nM in assay [1]; 160 nM in assay [2]; 140 nM in assay [3]; 210 nM in assay [4]; 70 nM in assay [5].
Turning to `CCc1nc2c(N3CCOCC3)nc(SCc3ccc(OC)c(Cl)c3)nc2n1C` [Compound 16, 2-(3-chloro-4-methoxybenzylsulfanyl)-8-ethyl-9-methyl-6-morpholino-9H-purine], the GI50 in assay [1] turned out to be 910 nM; in assay [2], 1220 nM; in assay [3] it was 1750 nM; in assay [4], 1680 nM; in assay [5], 850 nM.
The like results for `COc1ccc(CSc2nc(-c3cn[nH]c3)c3ncn(C)c3n2)cc1` [Compound 170, 2-(4-methoxybenzylsulfanyl)-9-methyl-6-(pyrazol-4-yl)-9H-purine] were, in that order, 50 nM, under 40 nM, under 40 nM, 70 nM and under 40 nM.
The like results for `COc1ccc(CSc2nc(N(C)C)c3ncn(C)c3n2)cc1C#N` [Compound 87, 2-(3-cyano-4-methoxybenzylsulfanyl)-6-dimethylamino-9-methyl-9H-purine] were, in that order, 40 nM, 40 nM, 50 nM, 80 nM and 20 nM.
For `CCc1nc2c(N(C)C)nc(SCc3ccc(OC)c(NC(C)=O)c3)nc2n1C` [Compound 60, 2-(3-acetylamino-4-methoxybenzylsulfanyl)-6-dimethylamino-8-ethyl-9-methyl-9H-purine], in that order: 870 nM, 1300 nM, 1400 nM, 1000 nM and 610 nM.
Consider `CCc1nc2c(N3CCOCC3)nc(SCc3ccc(OC)c(NC(C)=O)c3)nc2n1C` [Compound 27, 2-(3-acetylamino-4-methoxybenzylsulfanyl)-8-ethyl-9-methyl-6-morpholino-9H-purine], for which the GI50 in assay [1] was 650 nM; in assay [2], 920 nM; in assay [3] it was 580 nM; in assay [4], 1340 nM; in assay [5], 670 nM.
For `CCc1nc2c(N3CCOCC3)nc(SCc3ccc(C)cc3)nc2n1C` [Compound 8, 8-ethyl-9-methyl-2-(4-methylbenzylsulfanyl)-6-morpholino-9H-purine], in that order: 610 nM, 1470 nM, 2200 nM, 1700 nM and 1020 nM.
`CCOc1ccc(CSc2nc(NC)c3ncn(C)c3n2)cc1N` [Compound 107, 2-(3-amino-4-ethoxybenzylsulfanyl)-9-methyl-6-methylamino-9H-purine]: the GI50 in assay [1] stood at 50 nM; in assay [2], 310 nM; in assay [3], 70 nM; in assay [4], 100 nM; in assay [5] it was 30 nM.
The like results for `COc1ccc(CSc2nc(N(C)C(C)=O)c3ncn(C)c3n2)cc1` [Compound 61, 6-(N-acetyl-N-methylamino)-2-(4-methoxybenzylsulfanyl)-9-methyl-9H-purine] were, in that order, 890 nM, 460 nM, 520 nM, 840 nM and 330 nM.
The like results for `CCNc1nc(SCc2ccc(OC)cc2)nc2c1ncn2C` [Compound 64, 6-ethylamino-2-(4-methoxybenzylsulfanyl)-9-methyl-9H-purine] were, in that order, 450 nM, 310 nM, 480 nM, 380 nM and 380 nM.
The like results for `COc1ccc(CSc2nc(N(C)C)c3ncn(C)c3n2)cc1N` [Compound 19, 2-(3-amino-4-methoxybenzylsulfanyl)-6-dimethylamino-9-methyl-9H-purine] were, in that order, 400 nM, 4040 nM, 450 nM, 450 nM and 320 nM.
Turning to `COc1ccc(CSc2nc(N(C)OC)c3ncn(C)c3n2)cc1F` [Compound 137, 2-(3-fluoro-4-methoxybenzylsulfanyl)-6-(N-methoxy-N-methylamino)-9-methyl-9H-purine], the GI50 in assay [1] stood at 60 nM; in assay [2] it was 70 nM; in assay [3], 50 nM; in assay [4], 100 nM; in assay [5] it was 60 nM.
As for `COc1ccc(CSc2nc(-n3cccc3)c3ncn(C)c3n2)cc1N` [Compound 141, 2-(3-amino-4-methoxybenzylsulfanyl)-9-methyl-6-(1-pyrrolyl)-9H-purine], the GI50 in assay [1] was 470 nM; in assay [2], 4850 nM; in assay [3], 370 nM; in assay [4], 410 nM; in assay [5], 260 nM.
For `CCc1nc2c(N3C=COCC3)nc(SCc3ccc(OC)c(F)c3)nc2n1C` [Compound 157, 6-(2,3-dihydro[1,4]oxadin-4-yl)-8-ethyl-2-(3-fluoro-4-methoxybenzylsulfanyl)-9-methyl-9H-purine], the GI50 in assay [1] was determined as 90 nM; in assay [2], 80 nM; in assay [3], 60 nM; in assay [4], 80 nM; in assay [5] it was 40 nM.
Turning to `CCc1ccc(CSc2nc(N3CCOCC3)c3nc(CC)n(C)c3n2)cc1N` [Compound 90, 2-(3-amino-4-ethylbenzylsulfanyl)-8-ethyl-9-methyl-6-morpholino-9H-purine], the GI50 in assay [1] stood at 1730 nM; in assay [2], 1370 nM; in assay [3], 720 nM; in assay [4] it was 1100 nM; in assay [5], 520 nM.
For `CCc1nc2c(N3CCOCC3)nc(SCc3ccc(OC)cc3OCc3ccccc3)nc2n1C` [Compound 15, 2-(2-benzyloxy-4-methoxybenzylsulfanyl)-8-ethyl-9-methyl-6-morpholino-9H-purine], in that order: 820 nM, 1160 nM, 2280 nM, 1800 nM and 870 nM.
The like results for `CCc1nc2c(N3C=COCC3)nc(SCc3ccc(OC)cc3)nc2n1C` [Compound 148, 6-(2,3-dihydro-[1,4]oxadin-4-yl)-8-ethyl-2-(4-methoxybenzylsulfanyl)-9-methyl-9H-purine] were, in that order, 130 nM, 130 nM, 240 nM, 290 nM and 90 nM.
The like results for `CCc1nc2c(N(C)C)nc(SCc3ccc(OC)cc3)nc2n1C` [Compound 24, 6-dimethylamino-8-ethyl-2-(4-methoxybenzylsulfanyl)-9-methyl-9H-purine] were, in that order, 260 nM, 210 nM, 320 nM, 440 nM and 200 nM.
`COc1ccc(CSc2nc(N(C)OC)c3ncn(C)c3n2)cc1N` [Compound 145, 2-(3-amino-4-methoxybenzylsulfanyl)-6-(N-methoxy-N-methylamino)-9-methyl-9H-purine]: the GI50 in assay [1] was 130 nM; in assay [2] it was 810 nM; in assay [3], 80 nM; in assay [4], 190 nM; in assay [5], under 40 nM.
